According to patent publication US7897568B2, “Compositions for treatment of cancer” (priority 2006, dated 2011):
Where a SMILES comes first, the peptide text is derived from it. Where no end group is shown, it is not given here.

What was measured:
MCF7-SNCG cells = experiment: Microinjection of ANK peptide then nocodazole, mitotic arrest/apoptosis count; type: cell-based; conditions: ANK peptide microinjected, 0.5 μM nocodazole for 24 hours; versus uninjected
Procedure: (§1) ANK peptide interference with SNCG-BubR1 association in vivo was examined in a stable breast cancer cell line MCF7 expressing SNCG (MCF7-SNCG) and a control SNCG negative cell line (MCF7-Neo). […] Significant numbers of cells survived after treatment with the ANK peptide by microinjection in both cell lines. After microinjection, cells were treated with 0.5 μM nocodazole for 24 hours and the fraction of mitotically arrested cells was counted.
(§2) MCF7-SNCG and MCF-Neo were grown to 80% confluence, split with trypsin and seeded on a 22 mm glass coverslip treated with human fibronectin ([…]) into 60 mm diameter dishes containing cell maintenance medium for 24 hours and utilized for the experiments. In initial experiments ANK peptide (5, 10 or 100 μM) was microinjected. In all further experiment to date, ANK peptide (10 μM), together with goat IgG (1 mg/ml) and fluoroscein isothiocyanate (FITC, 5 mg/ml; Molecular Probes) into the MCF7-SNCG or MCF7-Neo cells under a 40× magnification of phase contrast microscope (Carl Zeiss Inc.) using a pressure injection system (Femtojet, Eppendorf). To exclude the possibility that microinjection might affect cell cycle and proliferation, MCF7-Neo and MCF7-SNCG were microinjected with goat IgG as a control. Injections were done at a constant flow setup by varying the injection pressure Pc between 40-70 units. The microscope stage was kept at 37° C. using thermal control device (Tempcontrol-37-2 Digital). Approximately 25-30 cells were microinjected in each experiment (n=3). Cells were quickly incubated to revive. […]
(§3) For the immunofluorescence experiments, cells were fixed in 0.5% buffered paraformaldehyde for 8 minutes at room temperature. […] Cells were scored by identifying cells containing Alexa Fluor 488 excited at 488 nm, and the emission measured at 500-535 nm; DAPI was excited at 345 nm and the emission was measured at 445 nm. […] Mitotic index was determined as described by Gupta et al. (Oncogene 2003 22:7593-7599) and Inaba et al. Breast Cancer Res. Treat. […]

MCF7-Neo cells [1] = experiment: as above; type: cell-based; conditions: MCF7-Neo5 cells, ANK peptide microinjected, nocodazole treated; versus uninjected
Procedure: as §1, §2, §3

GST-SNCG = molecular target: T1, GST-SNCG (Homo sapiens, UniProt O76070); experiment: Isothermal titration calorimetry of ANK peptide into GST-SNCG; conditions: ITC, first binding site
T1 construct: The SNCG coding region was amplified from the human cDNA clone; made in house; host or cells: Escherichia coli BL21 (DE3)
Procedure: The heat of dilution was measured by titrating ANK peptide in buffer alone. This was generally small and subtracted from each binding titration curve.
Titration calorimetry measurements were performed with a VP-ITC calorimeter (Microcal, Northampton, Mass.). The protein solution for ITC was dialyzed extensively overnight against 10 mM phosphate buffer, pH 7.0. The peptide solution was prepared by diluting with the buffer used for the protein dialysis. Injections (6 μl×50) of peptide (400 μM) were done by means of a rotating stirrer-syringe to the reaction cell, containing 1.43 ml of the 50 μM protein solution. The heat of dilution was determined to be negligible in separate titrations of the ligand into the buffer solution. Calorimetric data analysis was carried out with ORIGIN 5.0 software (MicroCal). Binding parameters such as the number of binding sites, the binding constant, and the binding enthalpy of bound ligand were determined by fitting the experimental binding isotherms.

SNCG = SNCG (Homo sapiens, UniProt O76070); experiment: Co-immunoprecipitation of EGFP-ANK with anti-SNCG antibody; type: binding; set-up: expressed in transfected cells; host or cells: MCF7-SNCG (MCF7 stably expressing SNCG)
MCF7-Neo cells [2] = experiment: Mitotic index and apoptosis by DAPI staining after paclitaxel; type: cell-based; conditions: neo cells expressing EGFP-ANK versus pEGFP, paclitaxel 18 hours
Procedure: FIG. 7A through D show expression of EGFP-ANK disrupting the SNCG-mediated inhibition of mitotic checkpoint function as measured by microscopy and flow cytometry. The bar graphs show the expression of EGFP-ANK disrupting the SNCG-mediated inhibition of mitotic checkpoint function, using (FIG. 7A) DAPI and (FIG. 7B) anti-phospho-H^3 staining. For graphs of FIGS. 7A and 7B, the cells treated with 0.5 μM paclitaxel for 18 hours or untreated control cells were fixed with 4% paraformaldehyde for 20 minutes at room temperature. In both cases, the cells were then stained with 1 μg/ml of DAPI or 2 μg/ml anti-phospho-H3 primary and Texas Red goat anti-rabbit secondary antibodies (Invitrogen). Green fluorescent cells were identified for positive transfected cells. For each sample, 200-300 cells randomly chosen from 5 different views under a Nikon fluorescent microscope were scored for interphase, mitotic, or apoptotic based upon nuclei morphology. The data shown were derived from three separate transfections (p<0.01). […]
Two days after transfection, cells were exposed to paclitaxel for 18 hours and numbers of mitotic arrested and apoptotic cells were counted after DAPI staining. […] These cells were also probed with rabbit polyclonal anti-phospho-H^3 and the mitotic index was calculated according to the proportion of the number of H^3 stained EGFP positive cells to total EGFP positive cells (FIG. 7B). […]

Sequence of SNCG (O76070 whole entry): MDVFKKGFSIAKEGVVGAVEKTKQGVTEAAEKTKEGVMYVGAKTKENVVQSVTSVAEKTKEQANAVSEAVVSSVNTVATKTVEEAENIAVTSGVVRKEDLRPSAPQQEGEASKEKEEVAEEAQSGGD
T1 sequence (O76070 whole entry): as above

Row | Molecule | level of mitotically arrested cells (MCF7-SNCG cells) | number of cells undergoing mitotic arrest/apoptosis (MCF7-Neo cells [1]) | ΔH (GST-SNCG) | co-precipitation with SNCG in anti-SNCG IP complexes (SNCG; MCF7-SNCG cells transfected with pEGFP-ANK, western blot with anti-GFP) | presence in anti-SNCG IP complexes (SNCG; MCF7-neo cells (SNCG negative control)) | mitotic index (MCF7-Neo cells [2]) | percentage of apoptotic cells (MCF7-Neo cells [2])
1 | CC[C@H](C)[C@H](NC(=O)[C@H](CS)NC(=O)CNC(=O)[C@H](CC(C)C)NC(=O)[C@H](Cc1c[nH]cn1)NC(=O)CNC(=O)[C@H](Cc1c[nH]cn1)NC(=O)[C@H](CCC(N)=O)NC(=O)[C@H](CO)NC(=O)[C@H](C)NC(=O)[C@@H](NC(=O)[C@H](Cc1c[nH]cn1)NC(=O)[C@H](CC(C)C)NC(=O)[C@H](C)NC(=O)[C@H](CO)NC(=O)[C@H](CC(N)=O)NC(=O)CNC(=O)[C@H](CCCCN)NC(C)=O)C(C)C)C(=O)N[C@@H](CCC(N)=O)C(=O)N[C@H](C(=O)N[C@@H](CC(C)C)C(=O)N[C@H](C(=O)N[C@@H](CCCNC(=N)N)C(=O)N[C@@H](Cc1ccc(O)cc1)C(=O)NCC(=O)N[C@@H](C)C(=O)N[C@@H](CC(N)=O)C(=O)N[C@H](C(=O)N[C@H](C(=O)N[C@@H](CCSC)C(=O)N[C@@H](CCC(N)=O)C(=O)N[C@@H](CC(N)=O)C(=O)N[C@@H](Cc1c[nH]cn1)C(=O)NCC(N)=O)[C@@H](C)O)C(C)C)C(C)C)[C@@H](C)O [ANK peptide] (Ac-KGNSALHVASQHGHLGCIQTLVRYGANVTMQNHG-NH2) | significantly (p<0.05) increased | not significantly affected | 2.174 ± 0.2 kcal/mol |  |  |  | 
2 | EGFP-ANK: ANK peptide expressed as a fusion protein with its amino-terminal linked to EGFP protein, approximately 37 kDa ({EGFP}-KGNSALHVASQHGHLGCIQTLVRYGANVTMQNHG) |  |  |  | co-precipitate with SNCG | not in the IP complexes | did not significantly alter | did not significantly alter
